Among the data in patent publication US20160022701A1, “NEUROACTIVE STEROIDS, COMPOSITIONS, AND USES THEREOF” (SAGE THERAPEUTICS, INC., priority 2013, published 2016) are activation values, retold here.

The assay has as its target T1, NMDA receptor (GRIN1/GRIN2A subunits) (Homo sapiens, UniProt Q05586+Q12879).
T1 construct: expressed in transfected cells; host or cells: HEK 293 cells, stably transfected with GRIN1 and transiently transfected with GRIN2A and CD8
As to the kind of experiment: NMDA potentiation, whole-cell patch-clamp in HEK cells. It counts as cell-based. Particulars: currents evoked by 30 μM NMDA and 5.0 μM Glycine, holding potential −80 mV; for activation at 0.1 µM: HEK293, compound 0.1 uM, read-out: NMDA 1a2A (%) Potentiation 0.1 uM; for activation at 1 µM: HEK293, compound 1 uM, read-out: NMDA 1a2A (%) Potentiation 1 uM. A general note: In patch-clamp work, channel activity is measured electrically.

T1 sequence (Q12879 23-1464, other chains not shown): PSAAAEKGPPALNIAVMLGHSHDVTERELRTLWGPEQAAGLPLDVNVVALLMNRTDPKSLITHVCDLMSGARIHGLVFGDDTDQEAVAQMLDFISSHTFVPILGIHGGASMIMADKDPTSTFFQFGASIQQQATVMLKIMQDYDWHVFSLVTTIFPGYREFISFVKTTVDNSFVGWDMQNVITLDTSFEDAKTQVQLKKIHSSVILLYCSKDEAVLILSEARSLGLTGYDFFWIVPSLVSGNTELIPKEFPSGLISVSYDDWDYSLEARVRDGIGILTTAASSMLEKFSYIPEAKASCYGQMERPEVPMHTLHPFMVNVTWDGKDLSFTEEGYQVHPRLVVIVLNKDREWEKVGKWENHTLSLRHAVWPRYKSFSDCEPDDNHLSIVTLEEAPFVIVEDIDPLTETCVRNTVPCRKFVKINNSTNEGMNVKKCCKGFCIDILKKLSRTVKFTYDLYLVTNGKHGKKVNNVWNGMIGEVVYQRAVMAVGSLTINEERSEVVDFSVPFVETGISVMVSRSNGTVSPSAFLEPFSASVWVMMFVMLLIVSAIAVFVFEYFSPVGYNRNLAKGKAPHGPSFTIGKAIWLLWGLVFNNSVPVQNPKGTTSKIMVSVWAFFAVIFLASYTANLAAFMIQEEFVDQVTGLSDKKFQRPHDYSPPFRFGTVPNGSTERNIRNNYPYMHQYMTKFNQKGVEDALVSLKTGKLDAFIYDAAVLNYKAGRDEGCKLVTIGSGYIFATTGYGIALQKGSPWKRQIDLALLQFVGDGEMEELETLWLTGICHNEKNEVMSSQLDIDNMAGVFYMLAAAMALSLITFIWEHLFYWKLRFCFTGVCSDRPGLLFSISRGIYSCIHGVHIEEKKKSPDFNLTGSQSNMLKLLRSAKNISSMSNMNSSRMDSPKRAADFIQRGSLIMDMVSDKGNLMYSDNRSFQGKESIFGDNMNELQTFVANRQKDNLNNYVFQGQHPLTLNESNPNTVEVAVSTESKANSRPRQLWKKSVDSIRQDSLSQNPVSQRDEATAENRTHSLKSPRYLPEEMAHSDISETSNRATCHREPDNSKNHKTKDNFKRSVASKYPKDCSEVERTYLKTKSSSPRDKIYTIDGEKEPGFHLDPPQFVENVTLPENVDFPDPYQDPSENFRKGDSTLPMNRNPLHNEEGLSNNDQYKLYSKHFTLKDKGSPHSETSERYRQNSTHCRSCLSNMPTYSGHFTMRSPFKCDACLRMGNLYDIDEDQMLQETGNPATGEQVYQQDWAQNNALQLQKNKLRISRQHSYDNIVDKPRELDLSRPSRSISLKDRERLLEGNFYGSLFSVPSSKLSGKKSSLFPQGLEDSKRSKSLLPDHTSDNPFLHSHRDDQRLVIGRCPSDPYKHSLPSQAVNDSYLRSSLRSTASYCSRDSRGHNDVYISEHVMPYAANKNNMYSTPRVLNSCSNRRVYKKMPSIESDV

Turning to `COC[C@]1(O)CC[C@@]2(C)[C@@H](CC[C@@H]3[C@@H]2CC[C@]2(C)[C@@H]([C@H](C)CCC(C)(C)O)CC[C@@H]32)C1`, the activation at 0.1 µM amounted to 14% and the activation at 1 µM stood at 110%.

For `CC(CCC(C)(C)O)[C@H]1CC[C@H]2[C@@H]3CC=C4C[C@@H](O)CC[C@]4(C)[C@H]3CC[C@]12C` (stereo partly drawn) [Compound 1], the activation at 0.1 µM stood at 55% and the activation at 1 µM is 197%. Taken in the same sequence, the figures for `C[C@H](CCC(C)(C)O)[C@H]1CC[C@H]2[C@@H]3CC[C@H]4C[C@](O)(C(F)(F)F)CC[C@]4(C)[C@H]3CC[C@]12C` were 59% and 172%. For the compound `C[C@H](CCC(C)(C)O)[C@H]1CC[C@H]2[C@@H]3CC[C@H]4C[C@](C)(O)CC[C@]4(C)[C@H]3CC[C@]12C`, the activation at 0.1 µM stood at 19% and the activation at 1 µM came to 30%. Taken in the same sequence, the figures for `C[C@H](CCC(C)(C)O)[C@H]1CC[C@H]2[C@@H]3CC=C4C[C@](C)(O)CC[C@]4(C)[C@H]3CC[C@]12C` were 13% and 60%. Taken in the same sequence, the figures for `CC[C@]1(O)CC[C@@]2(C)C(=CC[C@H]3[C@@H]4CC[C@H]([C@H](C)CCC(C)(C)O)[C@@]4(C)CC[C@@H]32)C1` were 181% and 286%. Taken in the same sequence, the figures for `CC(O)CC[C@@H](C)[C@H]1CC[C@H]2[C@@H]3CC=C4C[C@@H](O)CC[C@]4(C)[C@H]3CC[C@]12C` (stereo partly drawn) were 42% and 98%.

`C[C@H](CCC(C)(C)O)[C@H]1CC[C@H]2[C@@H]3CC[C@H]4C[C@](O)(C(F)(F)F)CC[C@@H]4[C@H]3CC[C@]12C`: the activation at 0.1 µM was 14% and the activation at 1 µM stood at 85%. Taken in the same sequence, the figures for `CC(C)[C@H](O)CC[C@@H](C)[C@H]1CC[C@H]2[C@@H]3CC=C4C[C@@H](O)CC[C@]4(C)[C@H]3CC[C@]12C` were 82% and 137%. In the case of `CNC(C)(C)CC[C@@H](C)[C@H]1CC[C@H]2[C@@H]3CC=C4C[C@@H](O)CC[C@]4(C)[C@H]3CC[C@]12C`, the activation at 0.1 µM is 25% and the activation at 1 µM worked out at 19%.

With `C[C@H](CCC(C)(C)O)[C@H]1CC[C@H]2[C@@H]3CC=C4C[C@@H](O)CC[C@@H]4[C@H]3CC[C@]12C`, the activation at 0.1 µM amounted to 28% and the activation at 1 µM was 66%. Taken in the same sequence, the figures for `C[C@H](CCCO)[C@H]1CC[C@H]2[C@@H]3CC=C4C[C@@H](O)CC[C@]4(C)[C@H]3CC[C@]12C` were 39% and 127%. Taken in the same sequence, the figures for `C[C@H](CC(C)(C)O)[C@H]1CC[C@H]2[C@@H]3CC=C4C[C@@H](O)CC[C@]4(C)[C@H]3CC[C@]12C` were -5% and 27%. Taken in the same sequence, the figures for `C[C@H](CCC(C)(C)O)[C@H]1CC[C@H]2[C@@H]3CC[C@@H]4C[C@@](O)(C(F)(F)F)CC[C@]4(C)[C@H]3CC[C@]12C` were 9% and 18%.

Turning to `CC(C)(O)CCC[C@H]1CCC2C3CC[C@H]4C[C@@](C)(O)CC[C@]4(C)C3CC[C@@]21C` (stereo partly drawn), the activation at 0.1 µM was determined as 17% and the activation at 1 µM worked out at 105%.

On to `COC[C@@]1(O)CC[C@@]2(C)[C@@H](CC[C@@H]3[C@@H]2CC[C@]2(C)[C@@H]([C@H](C)CCC(C)(C)O)CC[C@@H]32)C1`, for which the activation at 0.1 µM stood at 8% and the activation at 1 µM stood at 25%.

For `C[C@H](CC(F)(F)CO)[C@H]1CC[C@H]2[C@@H]3CC=C4C[C@@H](O)CC[C@]4(C)[C@H]3CC[C@]12C`, the activation at 0.1 µM is 31% and the activation at 1 µM amounted to 95%.

Turning to `C[C@H](CCC(C)(C)O)[C@H]1CC[C@H]2[C@@H]3CC[C@H]4C[C@](C)(O)CC[C@@H]4[C@H]3CC[C@]12C`, the activation at 0.1 µM amounted to 21% and the activation at 1 µM came to 52%.

On to `C[C@H](CCC(C)(C)O)[C@H]1CC[C@H]2[C@@H]3CC[C@H]4C[C@@H](O)CC[C@@H]4[C@H]3CC[C@]12C`, for which the activation at 0.1 µM was found to be 19% and the activation at 1 µM worked out at 44%. Taken in the same sequence, the figures for `C[C@H](CCC(C)(C)O)[C@H]1CC[C@H]2[C@@H]3CC[C@H]4C[C@@](C)(O)CC[C@@H]4[C@H]3CC[C@]12C` were 25% and 114%.

As to `CC[C@@]1(O)CC[C@@]2(C)C(=CC[C@H]3[C@@H]4CC[C@H]([C@H](C)CCC(C)(C)O)[C@@]4(C)CC[C@@H]32)C1`, the activation at 0.1 µM stood at 23% and the activation at 1 µM is 139%. Taken in the same sequence, the figures for `C[C@H](CCC1(O)CC1)[C@H]1CC[C@H]2[C@@H]3CC=C4C[C@@H](O)CC[C@]4(C)[C@H]3CC[C@]12C` were 74% and 171%.

Turning to `C[C@H](CCC(C)(C)O)[C@H]1CC[C@H]2[C@@H]3CC[C@H]4C[C@@H](O)CC[C@]4(C)[C@H]3CC[C@]12C`, the activation at 0.1 µM was determined as 18% and the activation at 1 µM amounted to 85%. On to `CC(C)(O)CCO[C@H]1CCC2C3CC[C@H]4C[C@@](C)(O)CC[C@]4(C)C3CC[C@@]21C` (stereo partly drawn), for which the activation at 0.1 µM was 6% and the activation at 1 µM was 27%. Turning to `C[C@H](CCC(C)(C)O)[C@H]1CC[C@H]2[C@@H]3CC=C4C[C@@](C)(O)CC[C@]4(C)[C@H]3CC[C@]12C`, the activation at 0.1 µM amounted to 128% and the activation at 1 µM was 348%. Turning to `C[C@H](CCC(C)(C)N)[C@H]1CC[C@H]2[C@@H]3CC=C4C[C@@H](O)CC[C@]4(C)[C@H]3CC[C@]12C`, the activation at 0.1 µM is -8% and the activation at 1 µM was -19%. `CC(C)(O)COC[C@H]1CCC2C3CC=C4C[C@@](C)(O)CC[C@]4(C)C3CC[C@@]21C` (stereo partly drawn): the activation at 0.1 µM is -5% and the activation at 1 µM was -14%. For the compound `C[C@H](CCC(C)(C)O)[C@H]1CC[C@H]2[C@@H]3CC[C@H]4C[C@@](C)(O)CC[C@]4(C)[C@H]3CC[C@]12C`, the activation at 0.1 µM came to 87%. As to `C[C@@H]([C@H]1CC[C@H]2[C@@H]3CC=C4C[C@@H](O)CC[C@]4(C)[C@H]3CC[C@]12C)C(C)(C)O`, the activation at 0.1 µM turned out to be 4% and the activation at 1 µM is 24%.
